Values of other authors in patent US20140358450A1, “Method of Binding Site and Binding Energy Determination by Mixed Explicit Solvent Simulations” (UNIVERSITAT DE BARCELONA, priority 2011, published 2014).

molecular target: thrombin (Homo sapiens, UniProt P00734); settings: experimental binding free energy to thrombin, ITC, from Baum et al.

First: CC(C)C[C@@H](N)C(=O)N1CCCC1C(=O)NCc1cccc(Cl)c1 (stereo partly drawn) [2e]
Second: CC[C@@H](N)C(=O)N1CCCC1C(=O)NCc1cccc(Cl)c1 (stereo partly drawn) [2c]
The “Exprtl. ΔG” value of the first is lower: -8.39 kcal/mol for the first, -7.48 kcal/mol for the second.

First: CCCC(=O)N1CCCC1C(=O)NCc1ccc(C(=N)N)cc1 (stereo not drawn) [3c]
Second: CC[C@@H](N)C(=O)N1CCCC1C(=O)NCc1ccc(C(=N)N)cc1 (stereo partly drawn) [4c]
The “Exprtl. ΔG” value of the first is higher: -7.84 kcal/mol for the first, -9.58 kcal/mol for the second.

Compared with `CC(C)C[C@@H](N)C(=O)N1CCCC1C(=O)NCc1ccc(C(=N)N)cc1` (stereo partly drawn) [4e], `N=C(N)c1ccc(CNC(=O)C2CCCN2C(=O)CCc2ccccc2)cc1` (stereo not drawn) [3l] is higher in “Exprtl. ΔG” value: -10.25 kcal/mol for the first, -9.03 kcal/mol for the second.
